From publication PMC9196953 (Drug development research, 1999)

Key:
human A1 receptors = target: T1, human A1 receptors (Homo sapiens, UniProt P30542); experiment: Binding at recombinant human A1 receptors expressed in HEK-293 cells vs [3H]CPX; conditions: recombinant human A1 in HEK-293 cells
T1 construct: expressed in transfected cells; host or cells: HEK-293
T1 sequence (P30542 1-326): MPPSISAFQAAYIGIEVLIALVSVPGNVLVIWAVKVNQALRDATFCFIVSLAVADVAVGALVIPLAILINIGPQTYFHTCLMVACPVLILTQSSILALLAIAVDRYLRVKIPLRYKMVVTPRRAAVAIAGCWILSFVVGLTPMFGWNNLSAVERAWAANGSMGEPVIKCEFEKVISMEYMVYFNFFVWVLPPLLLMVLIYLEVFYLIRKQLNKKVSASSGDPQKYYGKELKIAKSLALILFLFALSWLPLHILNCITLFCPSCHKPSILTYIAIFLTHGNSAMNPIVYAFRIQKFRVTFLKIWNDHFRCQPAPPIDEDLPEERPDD
Method: (§1) All nonradioactive compounds were initially dissolved in DMSO and diluted with buffer to the final concentration, where the amount of DMSO never exceeded 2%. Incubations were terminated by rapid filtration over Whatman GF/B filters using a Brandell cell harvester. The tubes were rinsed three times with 3 mL buffer each.
(§2) At least six different concentrations of competitor, spanning 3 orders of magnitude adjusted appropriately for the IC50 value of each compound, were used. IC50 values, calculated with the nonlinear regression method implemented in Graph-Pad Prism (San Diego, CA) were converted to apparent Ki values as described by [Linden [1982]]. Hill coefficients of the tested compounds were in the range of 0.8–1.1.
(§3) At A2B receptors, two radioligand binding assays (Table 1) were used. Ki values of xanthine derivatives were determined in displacement of binding of the non-selective radioligands […], 8 (4-(2-[7-amino-2-{furyl}{1,2,4}triazolo{2,3-a}{1,3,5}tr nzyl)-8-phenyloxyacetate-1-propyl-xanthine), at human A2B receptors expressed in HEK-293 cell membranes [[Linden and Jacobson, 1998]]. In order to evaluate selectivity, selected derivatives were subjected to standard binding assays at A1, A2A, and A3 receptors. The initial screening utilized rat brain A1/A2A receptors (with radioligands [^3H]R-PIA and [^3H]CGS-21680), and selected compounds were examined at the recombinant human subtypes (Table 1), using [^3H]CPX ([^3H]8-cyclopentyl-1,3-dipropylxanthine) and ^125I-ZM 241385, ^125I-4-(2-[7-amino-2-[2-furyl][1,2,4]triazolo[2,3-a][1,3,5]triazin-5-yl-amino]ethyl)phenol) [[Palmer et al., 1996]].

human A2A receptors = target: T2, human A2A receptors (Homo sapiens, UniProt P29274); experiment: Binding at recombinant human A2A receptors expressed in HEK-293 cells vs [125I]ZM241385; conditions: recombinant human A2A in HEK-293 cells, read-out: Ki A2A (h) (converted)
T2 construct: expressed in transfected cells; host or cells: HEK-293
Method: as §1, §2, §3

rat A2A receptors = target: T3, rat A2A receptors (Rattus norvegicus, UniProt P30543); experiment: Displacement of [3H]CGS 21680 binding to A2A receptors in rat striatal membranes; conditions: for Ki: read-out: Ki rA2A
T3 construct: to A2A receptors from rat striatal membranes; from tissue; host or cells: rat striatal membranes
Method: as §1, §2, §3

human A2B receptors = target: T4, human A2B receptors (Homo sapiens, UniProt P29275); experiment: Binding at human A2B receptors expressed in HEK-293 cells vs [125I]-ABOPX; conditions: read-out: Ki hA2B (converted)
T4 construct: expressed in transfected cells; host or cells: HEK-293
T4 sequence (P29275 1-332): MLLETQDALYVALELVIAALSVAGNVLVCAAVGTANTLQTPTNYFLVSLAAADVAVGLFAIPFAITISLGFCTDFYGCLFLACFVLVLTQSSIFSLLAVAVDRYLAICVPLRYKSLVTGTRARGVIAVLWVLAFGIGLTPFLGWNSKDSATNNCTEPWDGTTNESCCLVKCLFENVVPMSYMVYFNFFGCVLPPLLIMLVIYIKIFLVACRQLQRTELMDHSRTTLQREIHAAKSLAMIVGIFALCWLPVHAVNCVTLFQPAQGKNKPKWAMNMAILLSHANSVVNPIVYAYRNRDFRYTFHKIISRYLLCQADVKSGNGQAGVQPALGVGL
Method: The human A2B receptor cDNA was subcloned into the expression plasmid pDoubleTrouble [[Robeva et al., 1996a]]. The plasmid was amplified in competent JM109 cells and plasmid DNA isolated using Wizard Megaprep columns (Promega Corp., Madison, WI).
Transfected HEK cells were grown under 5% CO2/[…] humidified atmosphere at a temperature of 37°C. Colonies were selected by growth of cells in 0.6 mg/mL G418. Transfected cells were maintained in DMEM supplemented with Hams F12 nutrient mixture (1/1), 10% newborn calf serum, 2 mM glutamine, and containing 50 IU/mL penicillin, 50 μg/mL streptomycin, and 0.2 mg/mL Geneticin (G418, Boehringer Mannheim, Indianapolis, IN). Cells were cultured in 10 cm diameter round plates and subcultured when grown confluent (approximately after 72 h).
Confluent monolayers of HEK-A2B cells were washed with PBS followed by ice-cold Buffer A (10 mM HEPES, 10 mM EDTA, pH 7.4) with protease inhibitors ([…] benzamidine, […], and […] of each aprotinin, pepstatin, and leupeptin). The cells were homogenized in a Polytron (Brinkmann) for 20 sec, centrifuged at 30,000g, and the pellets washed twice with buffer HE (10 mM HEPES, 1 mM EDTA, pH 7.4 with protease inhibitors). The final pellet was resuspended in buffer HE, supplemented with 10% sucrose and frozen in aliquots at −80°C. For binding assays, membranes were thawed and diluted 5–10-fold with HE to a final protein concentration of approximately 1 mg/mL. To determine protein concentrations, membranes, and bovine serum albumin standards were dissolved in 0.2% NaOH/0.01% SDS and protein determined using fluorescamine fluorescence [[Stowell et al., 1978]]. […] To prepare [^125I-]ABOPX, […] of 1 mM ABOPX in methanol/1 M NaOH (20:1) was added to […] of 100 mM phosphate buffer, pH 7.3. One or 2 mCi of Na^125I was added, followed by […] of 1 mg/mL chloramine-T in water. After incubating for 20 min at room temperature, 50 mL of 10 mg/mL Na-metabisulfite in water was added the quench the reaction. The reaction products were applied to a C18 HPLC column using 4 mM phosphate, pH 6.0/methanol. After 5 min in 35% methanol, the methanol concentration was ramped to 100% over 15 min. Unreacted ABOPX eluted in 11–12 min; [^125I-]ABOPX eluted at 18–19 min in a yield of 50–60% of the initial ^125I. In equilibrium binding assays the ratio of [^127I/^125I-]ABOPX was 10–20/1. […] The incubation time was 3 h at 21°C. […] Competition experiments were carried out using 0.6 nM ^125I-ABOPX. Membranes were filtered on Whatman GF/C filters using a Brandell cell harvester (Gaithersburg, MD) and washed three times over 15–20 sec with ice-cold buffer (10 mM Tris, 1 mM MgCl2, pH 7.4). Bmax and KD values were calculated by Marquardt’s nonlinear least squares interpolation for single site binding models [[Marquardt, 1963]]. Ki values for different compounds were derived from IC50 values as described previously [[Linden, 1982]]. Data from replicate experiments are tabulated as means ± SEM.
as §3

T3 sequence (P30543 whole entry): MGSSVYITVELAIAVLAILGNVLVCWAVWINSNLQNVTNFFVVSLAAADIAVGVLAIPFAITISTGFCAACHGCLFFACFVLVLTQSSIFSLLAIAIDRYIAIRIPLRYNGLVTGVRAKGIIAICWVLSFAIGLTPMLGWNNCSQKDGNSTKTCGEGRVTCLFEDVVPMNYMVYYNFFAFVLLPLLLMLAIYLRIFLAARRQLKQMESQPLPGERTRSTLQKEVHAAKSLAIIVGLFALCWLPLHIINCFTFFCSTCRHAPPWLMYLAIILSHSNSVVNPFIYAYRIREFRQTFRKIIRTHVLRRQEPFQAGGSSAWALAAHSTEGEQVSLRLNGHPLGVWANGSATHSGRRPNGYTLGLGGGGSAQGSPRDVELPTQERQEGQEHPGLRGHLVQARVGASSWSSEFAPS
T2 sequence (P29274 whole entry): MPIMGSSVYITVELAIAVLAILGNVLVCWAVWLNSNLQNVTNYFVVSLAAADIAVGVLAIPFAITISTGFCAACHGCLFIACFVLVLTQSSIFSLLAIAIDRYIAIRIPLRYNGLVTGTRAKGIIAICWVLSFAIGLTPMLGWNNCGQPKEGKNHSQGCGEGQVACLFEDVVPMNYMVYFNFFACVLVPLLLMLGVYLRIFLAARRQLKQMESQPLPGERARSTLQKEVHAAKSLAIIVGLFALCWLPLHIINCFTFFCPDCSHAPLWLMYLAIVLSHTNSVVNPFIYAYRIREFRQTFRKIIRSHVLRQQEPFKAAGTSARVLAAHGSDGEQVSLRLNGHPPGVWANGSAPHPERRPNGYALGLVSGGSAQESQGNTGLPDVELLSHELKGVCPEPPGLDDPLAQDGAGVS

Compound: CCCn1c(=O)c2[nH]c(-c3ccc(OCC(=O)OCC)cc3)nc2n(CCC)c1=O [Compound 4b]
- Ki (human A1 receptors): 203 nM
- Ki (human A2A receptors): 342 nM
- Ki (rat A2A receptors): 128 ± 15 nM
- Ki (human A2B receptors): 34.5 nM

Compound: CCCn1c(=O)c2[nH]c(-c3ccc(OCC(=O)NNC(C)=O)cc3)nc2n(CCC)c1=O [Compound 4e, 8-[4-[(Carboxymethyl)oxy]phenyl]-1,3-di-(n-propyl)xanthine N-Acetylhydrazide]
- Ki (human A1 receptors): 125 nM
- Ki (human A2A receptors): 186 nM
- Ki (rat A2A receptors): 227 ± 64 nM
- Ki (human A2B receptors): 33.8 nM

Compound: CCCn1c(=O)c2[nH]c(-c3ccc(OCC(=O)NNC(=O)CCC(=O)O)cc3)nc2n(CCC)c1=O [Compound 9, 8-[4-[(Carboxymethyl)oxy]phenyl]-1,3-di-(n-propyl)xanthine N-[(3-Carboxy)-n-propionyl]hydrazide]
- Ki (human A1 receptors): 219 nM
- Ki (human A2A receptors): 795 nM
- Ki (rat A2A receptors): 174 ± 32 nM
- Ki (human A2B receptors): 97.8 nM

Compound: CCCn1c(=O)c2[nH]c(-c3ccc(OCC(=O)NN4C(=O)C(C)=C(C)C4=O)cc3)nc2n(CCC)c1=O [Compound 14, 8-[4-[(Carboxymethyl)oxy]phenyl]-1,3-di-(n-propyl)xanthine N,N-[(1,2-Dimethyl)maleyl]hydrazide]
- Ki (human A1 receptors): 3030 nM
- Ki (human A2A receptors): 1970 nM
- Ki (rat A2A receptors): 126 ± 41 nM
- Ki (human A2B receptors): 33.8 nM

Compound: CCCn1c(=O)[nH]c(=O)c2[nH]c(-c3ccc(OCC(=O)NN4C(=O)C(C)=C(C)C4=O)cc3)nc21 [Compound 15, 8-[4-[(Carboxymethyl)oxy]phenyl]-1H-3-(n-propyl)xanthine N,N-[(1,2-Dimethyl)maleyl]hydrazide]
- Ki (human A1 receptors): 8080 nM
- Ki (human A2A receptors): 5480 nM
- % displacement rA2A (rat A2A receptors; rat striatal membranes, [3H]CGS 21680, at 10^−4): 36 ± 4%
- Ki (human A2B receptors): 1900 nM

Compound: CCCn1c(=O)c2[nH]c(-c3ccc(OCC(=O)NN4C(=O)c5ccccc5C4=O)cc3)nc2n(CCC)c1=O [Compound 21, 8-[4-[(Carboxymethyl)oxy]phenyl]-1,3-di-(n-propyl)xanthine N,N-Phthaloylhydrazide]
- Ki (human A1 receptors): 210 nM
- Ki (human A2A receptors): 359 nM
- Ki (rat A2A receptors): 392 ± 117 nM
- Ki (human A2B receptors): 46.4 nM
